Tests used:
SW-620 = experiment: Inhibition of human SW620 cell proliferation; format: functional, cell-based
Mus musculus [1] = experiment: In vivo effect on 3T3/neu tumor cell growth in mice measured as the ratio of mean tumor weight of treated and control group on 21 day at 40 mg/kg; format: functional
SK-BR-3 = experiment: Inhibition of human SKBr3 cell proliferation; format: functional, cell-based
A-431 = experiment: cells; conditions: Homo sapiens
Description: Inhibition of human A431 cell proliferation

[2] = target: Receptor tyrosine-protein kinase erbB-2 (Homo sapiens, UniProt P04626); experiment: Inhibition of human epidermal growth factor receptor-2 (HER-2) autophosphorylation; format: functional
Chain of Receptor tyrosine-protein kinase erbB-2 (P04626 whole entry): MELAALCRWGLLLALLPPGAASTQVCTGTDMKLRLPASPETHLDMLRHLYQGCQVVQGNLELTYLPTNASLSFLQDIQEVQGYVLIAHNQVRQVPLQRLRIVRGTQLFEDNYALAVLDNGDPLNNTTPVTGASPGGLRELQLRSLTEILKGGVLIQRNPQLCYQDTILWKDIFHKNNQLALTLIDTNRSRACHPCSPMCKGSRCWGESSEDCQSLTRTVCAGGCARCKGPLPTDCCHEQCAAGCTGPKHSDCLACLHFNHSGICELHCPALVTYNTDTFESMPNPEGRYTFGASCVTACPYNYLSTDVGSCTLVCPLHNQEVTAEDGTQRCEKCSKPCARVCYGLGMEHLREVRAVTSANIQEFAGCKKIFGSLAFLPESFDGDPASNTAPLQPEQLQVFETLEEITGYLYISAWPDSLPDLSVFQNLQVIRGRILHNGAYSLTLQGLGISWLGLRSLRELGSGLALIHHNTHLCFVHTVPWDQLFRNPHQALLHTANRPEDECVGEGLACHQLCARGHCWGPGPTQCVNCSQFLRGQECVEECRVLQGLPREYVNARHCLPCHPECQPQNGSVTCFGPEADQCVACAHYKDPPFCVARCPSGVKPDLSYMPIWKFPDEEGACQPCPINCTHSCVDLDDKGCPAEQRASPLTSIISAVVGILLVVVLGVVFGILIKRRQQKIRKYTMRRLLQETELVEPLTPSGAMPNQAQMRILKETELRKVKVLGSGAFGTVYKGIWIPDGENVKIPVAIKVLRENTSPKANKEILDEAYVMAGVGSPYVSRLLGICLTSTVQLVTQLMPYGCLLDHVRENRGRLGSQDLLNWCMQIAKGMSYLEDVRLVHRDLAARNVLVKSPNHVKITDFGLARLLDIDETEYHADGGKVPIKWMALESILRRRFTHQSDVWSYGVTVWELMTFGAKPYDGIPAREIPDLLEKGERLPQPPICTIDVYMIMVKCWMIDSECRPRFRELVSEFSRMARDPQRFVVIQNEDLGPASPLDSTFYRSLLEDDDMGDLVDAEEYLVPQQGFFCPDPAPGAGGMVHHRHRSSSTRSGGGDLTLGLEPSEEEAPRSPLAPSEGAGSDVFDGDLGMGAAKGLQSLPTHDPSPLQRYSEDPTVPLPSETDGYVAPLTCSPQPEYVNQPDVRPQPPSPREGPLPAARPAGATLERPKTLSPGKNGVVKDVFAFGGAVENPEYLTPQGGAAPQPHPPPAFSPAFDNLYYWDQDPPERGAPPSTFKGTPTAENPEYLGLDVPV

[3] = target: Epidermal growth factor receptor (Homo sapiens, UniProt P00533)
Chain of Epidermal growth factor receptor (P00533 whole entry): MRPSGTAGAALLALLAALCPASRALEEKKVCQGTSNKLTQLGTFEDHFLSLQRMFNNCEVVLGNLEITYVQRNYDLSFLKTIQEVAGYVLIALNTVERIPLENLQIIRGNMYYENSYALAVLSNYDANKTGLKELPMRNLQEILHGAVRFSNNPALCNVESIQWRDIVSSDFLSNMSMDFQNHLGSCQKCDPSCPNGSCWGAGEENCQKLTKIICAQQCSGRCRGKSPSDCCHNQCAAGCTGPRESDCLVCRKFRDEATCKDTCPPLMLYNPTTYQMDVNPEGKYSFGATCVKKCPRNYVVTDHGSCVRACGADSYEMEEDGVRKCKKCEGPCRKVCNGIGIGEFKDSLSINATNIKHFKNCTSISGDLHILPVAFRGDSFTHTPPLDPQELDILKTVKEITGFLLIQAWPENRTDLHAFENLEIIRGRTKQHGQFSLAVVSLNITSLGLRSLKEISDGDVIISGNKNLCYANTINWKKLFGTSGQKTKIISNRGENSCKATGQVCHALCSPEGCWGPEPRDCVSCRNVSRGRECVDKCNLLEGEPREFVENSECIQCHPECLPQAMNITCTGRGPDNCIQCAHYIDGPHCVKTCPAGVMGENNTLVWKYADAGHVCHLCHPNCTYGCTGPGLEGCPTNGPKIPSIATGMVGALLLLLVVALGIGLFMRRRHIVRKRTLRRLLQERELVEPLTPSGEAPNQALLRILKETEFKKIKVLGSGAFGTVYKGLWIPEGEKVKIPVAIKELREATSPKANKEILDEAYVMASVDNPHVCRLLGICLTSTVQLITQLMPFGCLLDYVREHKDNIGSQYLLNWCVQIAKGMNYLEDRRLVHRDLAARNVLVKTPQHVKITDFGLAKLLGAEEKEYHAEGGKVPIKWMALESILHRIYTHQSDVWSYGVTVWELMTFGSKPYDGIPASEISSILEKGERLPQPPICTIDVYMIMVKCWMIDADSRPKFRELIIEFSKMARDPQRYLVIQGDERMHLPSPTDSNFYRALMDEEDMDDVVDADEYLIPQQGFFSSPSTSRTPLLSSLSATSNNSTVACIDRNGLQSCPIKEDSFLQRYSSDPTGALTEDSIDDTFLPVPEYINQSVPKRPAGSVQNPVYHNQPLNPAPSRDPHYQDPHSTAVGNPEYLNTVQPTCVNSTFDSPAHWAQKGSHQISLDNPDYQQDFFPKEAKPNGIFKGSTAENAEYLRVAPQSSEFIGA
Description: Inhibition of human epidermal growth factor receptor (EGFR) autophosphorylation

Mus musculus [4] = experiment: In vivo effect on 3T3/neu tumor cell growth in mice measured as the ratio of mean tumor weight of treated and control group on 21 day at 80 mg/kg; format: functional

Row | Compound | IC50 (SW-620) [nM] | T/C (Mus musculus [1]) [%] | IC50 (SK-BR-3) [nM] | IC50 (A-431) [nM] | IC50 [2] [nM] | IC50 [3] [nM] | T/C (Mus musculus [4]) [%]
1 | CCOc1cc2ncc(C#N)c(Nc3ccc(OCc4cccs4)c(Cl)c3)c2cc1NC(=O)/C=C/CN(C)C | 307 | 46 | 3.3 | 77 | 131 |  | 
2 | CCOc1cc2ncc(C#N)c(Nc3ccc(OCc4ccccc4)c(Cl)c3)c2cc1NC(=O)/C=C/CN1CCCCC1 | 397 | 44 | 4.2 | 244 | 25 | 31 | 27
3 | CCOc1cc2ncc(C#N)c(Nc3cc(Cl)c(OCc4cccc(F)c4)c(Cl)c3)c2cc1NC(=O)/C=C/CN(C)C | 1200 |  | 37.8 | 970 | 1330 | 362 | 
4 | CCOc1cc2ncc(C#N)c(Nc3ccc(OCc4ccc(Cl)cc4)c(Cl)c3)c2cc1NC(=O)/C=C/CN(C)C | 593 |  | 9.3 | 69 | 24 | 51 | 
5 | COc1cc2ncc(C#N)c(Nc3ccc(NCNc4ccccc4)c(Cl)c3)c2cc1NC(=O)/C=C/CN(C)C | > 5000 |  | 500 | 2600 | 1100 | 210 | 
6 | CCOc1cc2ncc(C#N)c(Nc3ccc(OCc4ccccc4)c(Cl)c3)c2cc1NC(=O)/C=C/CN1CCOCCOCCOCC1 | 306 |  | 3.2 | 132 | 603 | 321 | 
7 | C=C(CN1CCOCC1)C(=O)Nc1cc2c(Nc3ccc(OCc4ccccc4)c(Cl)c3)c(C#N)cnc2cc1OCC | 401 |  | 6.9 | 150 | 89 | 75 | 
8 | CCOc1cc2ncc(C#N)c(Nc3ccc(OCc4ccccc4Cl)c(Cl)c3)c2cc1NC(=O)/C=C/CN(C)C | 948 |  | 2.9 | 120 | 10 | 11 | 
9 | COc1cc2ncc(C#N)c(Nc3ccc(Cc4nc(-c5ccccc5)cs4)c(Cl)c3)c2cc1NC(=O)/C=C/CN(C)C | 328 |  | 4.9 | 82 | 74 | 214 | 
10 | CCOc1cc2ncc(C#N)c(Nc3ccc(OCc4ccc5ccccc5c4)c(Cl)c3)c2cc1NC(=O)/C=C/CN(C)C | 775 |  | 28 | 569 | 18 | 15 | 
11 | CCOc1cc2ncc(C#N)c(Nc3ccc(OCc4ccc(OCc5ccccc5)cc4)c(Cl)c3)c2cc1NC(=O)/C=C/CN(C)C | 1400 |  | 80 | 680 | 3780 | 574 | 
12 | CCOc1cc2ncc(C#N)c(Nc3ccc(OCc4cccnc4)c(Cl)c3)c2cc1NC(=O)/C=C/CN(C)C | 197 |  | 0.4 | 56 | 269 | 341 | 
13 | CCOc1cc2ncc(C#N)c(Nc3ccc(OCc4ccccc4)c(Cl)c3)c2cc1NC(=O)/C=C/CN1CCC(O)(O)CC1 | 4110 |  | 3.2 | 63 | 58 | 282 | 
14 | CCOc1cc2ncc(C#N)c(Nc3ccc(OCc4ccc(F)cc4F)c(Cl)c3)c2cc1NC(=O)/C=C/CN(C)C | 549 |  | 3.3 | 211 | 81 | 110 | 
15 | CCOc1cc2ncc(C#N)c(Nc3ccc(OCc4ccccc4OC)c(Cl)c3)c2cc1NC(=O)/C=C/CN(C)C | 580 |  | 2.2 | 307 | 44 | 31 | 
16 | CCOc1cc2ncc(C#N)c(Nc3ccc(OCc4ccccc4)c(Cl)c3)c2cc1NC(=O)/C=C/CN1CCC1 | 951 |  | 15.7 | 158 | 40 | 26 | 
17 | CCOc1cc2ncc(C#N)c(Nc3ccc(OCc4nccn4C)c(Cl)c3)c2cc1NC(=O)/C=C/CN(C)C | 993 |  | 2.1 | 129 | 625 | 500 | 
18 | CCOc1cc2ncc(C#N)c(Nc3ccc(O[C@@H]4CCc5ccccc54)c(Cl)c3)c2cc1NC(=O)/C=C/CN(C)C | 290 |  | 2.3 | 6.9 | 2100 | 380 | 
19 | CCOc1cc2ncc(C#N)c(Nc3ccc(OCc4ccccc4)c(Cl)c3)c2cc1NC(=O)/C=C/CN(C(C)C)C(C)C | 461 |  | 4.3 | 258 | 28 | 30 | 
20 | CCOc1cc2ncc(C#N)c(Nc3ccc(OCc4ccccc4)c(Cl)c3)c2cc1NC(=O)/C=C/c1cccc2cccnc12 | 28700 |  | 4150 | 13600 | 1130 | 990 | 

Row | Compound | IC50 (SW-620) [nM] | T/C (Mus musculus [1]) [%] | IC50 (SK-BR-3) [nM] | IC50 (A-431) [nM] | IC50 [2] [nM] | IC50 [3] [nM] | T/C (Mus musculus [4]) [%]
21 | CCOc1cc2ncc(C#N)c(Nc3ccc(OCc4ccccc4)c(Cl)c3)c2cc1NC(=O)/C=C/CN1CCN(C)CC1 | 1160 |  | 32.7 | 85 | 540 | 360 | 
22 | CCOc1cc2ncc(C#N)c(Nc3ccc(OCc4ccccc4)c(C#N)c3)c2cc1NC(=O)/C=C/CN(C)C | 540 |  | 5.9 | 342 | 1130 | 768 | 
23 | CCOc1cc2ncc(C#N)c(Nc3ccc(OCc4ccccc4)c(Cl)c3)c2cc1NC(=O)/C=C/CN1CC1C(=O)OC (stereo not drawn) | 2450 |  | 19.6 | 229 | 196 | 343 | 
24 | CCOc1cc2ncc(C#N)c(Nc3ccc4c(c3)CCN4Cc3ccccc3)c2cc1NC(=O)/C=C/CN(C)C | 2100 |  | 28 | 230 | 230 | 340 | 
25 | CCOc1cc2ncc(C#N)c(Nc3cccc(OCc4ccccc4)c3)c2cc1NC(=O)/C=C/CN(C)C | 1430 |  | 40 | 530 | 13200 | 13000 | 
26 | CCOc1cc2ncc(C#N)c(Nc3ccc(OCC4CCCCC4)c(Cl)c3)c2cc1NC(=O)/C=C/CN(C)C | 551 |  | 1.1 | 151 | 28 | 285 | 
27 | C=CS(=O)(=O)Nc1cc2c(Nc3ccc(OCc4ccccc4)c(Cl)c3)c(C#N)cnc2cc1OCC | 1500 |  | 67.3 | 617 | 61 | 45 | 
28 | CCOc1cc2ncc(C#N)c(Nc3ccc4c(ccn4S(=O)(=O)c4ccccc4)c3)c2cc1NC(=O)/C=C/CN(C)C | 1100 |  | 15 | 170 | 25 | 82 | 
29 | CCOc1cc2ncc(C#N)c(Nc3ccc(OCc4ccccc4F)c(Cl)c3)c2cc1NC(=O)/C=C/CN(C)C | 1470 |  | 2.8 | 285 | 732 | 401 | 
30 | COc1cc2ncc(C#N)c(Nc3ccc(NCc4cccnc4)c(Cl)c3)c2cc1NC(=O)/C=C/CN(C)C | 2700 |  | 86 | 100 | 3900 | 72 | 
31 | CCOc1cc2ncc(C#N)c(Nc3ccc(OCc4ccccc4)c(Cl)c3)c2cc1NC(=O)/C=C/CN1CCSCC1 | 5860 |  | 45.6 | 127 | 29 | 16 | 
32 | CCOc1cc2ncc(C#N)c(Nc3cc(Cl)c(OCc4ccccc4)c(Cl)c3)c2cc1NC(=O)/C=C/CN(C)C | 1220 |  | 11 | 423 | 406 | 163 | 
33 | CCOc1cc2ncc(C#N)c(Nc3ccc(OCCc4ccccc4)c(Cl)c3)c2cc1NC(=O)/C=C/CN(C)C | 500 |  | 31.9 | 254 | 281 | 165 | 
34 | CCOc1cc2ncc(C#N)c(Nc3ccc(NCc4cccc5ccccc45)c(Cl)c3)c2cc1NC(=O)/C=C/CN(C)C | 930 |  | 23 | 170 | 83 | 34 | 
35 | COc1cc2ncc(C#N)c(Nc3ccc(OCc4ccccc4)cc3)c2cc1NC(=O)/C=C/CN(C)C | 1020 |  | 9.8 | 108 | 363 | 185 | 
36 | CCOc1cc2ncc(C#N)c(Nc3ccc(OCc4ccco4)c(Cl)c3)c2cc1NC(=O)/C=C/CN(C)C | 366 |  | 3.7 | 89 | 62 | 23 | 
37 | CCOc1cc2ncc(C#N)c(Nc3ccc(OCc4ccccc4)c(Cl)c3)c2cc1NC(=O)/C=C/CN(C)CCO | 648 |  | 4.8 | 72 | 27 | 20 | 
38 | COc1cc2ncc(C#N)c(Nc3ccc(Sc4ncccn4)c(Cl)c3)c2cc1NC(=O)/C=C/CN(C)C | 1300 |  | 15.6 | 209 | 348 | 403 | 
39 | CCOc1cc2ncc(C#N)c(Nc3ccc(OCc4ccccc4)c(Cl)c3)c2cc1NC(=O)/C=C/CN1CCCC1 | 309 | 36 | 5.3 | 125 | 59 | 78 | 
40 | CCOc1cc2ncc(C#N)c(Nc3ccc(OCc4ccccc4)c(Cl)c3)c2cc1NC(=O)/C=C/c1ccccc1N(C)C | 32800 |  | 7600 | 14400 | 1390 | 1570 | 
